Laboratory results: ChEMBL document CHEMBL4004820 (J Med Chem, 2017)

Biological target: Matrix protein 2 (Influenza A virus (A/Udorn/307/1972(H3N2)), UniProt P0DOF8, S31N)

SMILES | Kd
CCC1(N)C2CC3CC(C2)CC1C3 (centres undefined) | Not Active
NC1C2CC3CC(C2)CC1C3 (centres undefined) | Not Active
CC1(N)C2CC3CC(C2)CC1C3 (centres undefined) | Not Active
NC12CC3CC(CC(C3)C1)C2 [AMANTADINE] | Not Active
